Read-outs that look alike come from different tables or passages of the source.
Key:
[1] = tested on: adult patients with persistent negative symptoms of schizophrenia; type: in vivo, human; details: 50 mg, 125 mg, 500 mg once daily
[2] = tested on: adult patients with persistent negative symptoms of schizophrenia; type: in vivo, human; details: for SCoRS Interviewer Total Score, Difference from Placebo for Week 12, LS Mean (SE) / SCoRS Interviewer Total Score, Adjusted Change from Baseline to Week 12, LS Mean (SE): MMRM; for SCoRS Interviewer Total Score, Difference from Placebo for Week 12, LS Mean (SE) / SCoRS Interviewer Total Score, Adjusted Change from Baseline to Week 12, LS Mean (SE) / SCoRS Interviewer Total Score, Change from Baseline to Week 12, Mean (SD) / SCoRS Interviewer Total Score, Change from Baseline to Week 12, Median / SCoRS Interviewer Total Score, Week 12, Mean (SD) / SCoRS Interviewer Total Score, Week 12, Median: preliminary analysis
Text: To assess changes in cognitive impairment associated with schizophrenia (CIAS), secondary endpoints included the 12-week change from baseline in the Brief Assessment of Cognition in Schizophrenia (BACS) composite score, a measure of cognition across multiple domains, and the Schizophrenia Cognition Rating Scale (SCORS) score, a measure of day-to-day cognitive functioning requiring input from an adult informant. Secondary endpoints were not corrected for multiplicity.
The SCORS is an interview-based measure of cognitive functioning that was developed to specifically assess aspects of cognitive functioning in participants with schizophrenia. The items assess the 7 cognitive domains of attention, memory, reasoning and problem solving, working memory, processing speed, language functions, and social cognition. The SCORS global total scores is the sum of the 20 items, and it varies from 20 to 80 with 20 being the best outcome and 80 being the worst.

O=c1[nH]nc(CCc2ccc(C(F)(F)F)cc2)cc1O [Compound (I), luvadaxistat]
Negative symptoms as measured with the BNSS [1]: no significant improvements
SCoRS interviewer total score, effect size versus placebo ([2]; 50 mg once daily, 12 weeks, p=0.011, not corrected for multiplicity): 0.4
SCoRS Interviewer Total Score, Difference from Placebo for Week 12, LS Mean (SE) ([2]; 50 mg once daily, one-sided unadjusted p 0.007*): −2.4 (0.94)
SCoRS Interviewer Total Score, Adjusted Change from Baseline to Week 12, LS Mean (SE) ([2]; 50 mg once daily): −3.7 (0.77)
SCoRS interviewer total score, 12-week LS mean change from baseline ([2]; 50 mg once daily, placebo −1.6): −3.8
SCoRS Interviewer Total Score, Change from Baseline to Week 12, Mean (SD) ([2]; 50 mg once daily): −4.0 (5.93)
SCoRS Interviewer Total Score, Change from Baseline to Week 12, Median ([2]; 50 mg once daily): −3.0
SCoRS Interviewer Total Score, Week 12, Mean (SD) ([2]; 50 mg once daily): 35.5 (10.91)
SCoRS Interviewer Total Score, Week 12, Median ([2]; 50 mg once daily): 32.0
SCoRS Interviewer Total Score, Difference from Placebo for Week 12, LS Mean (SE) ([2]; 125 mg once daily, one-sided unadjusted p 0.236): −0.7 (0.96)
SCoRS Interviewer Total Score, Adjusted Change from Baseline to Week 12, LS Mean (SE) ([2]; 125 mg once daily): −2.1 (0.77)
SCoRS Interviewer Total Score, Change from Baseline to Week 12, Mean (SD) ([2]; 125 mg once daily): −2.1 (5.89)
SCoRS Interviewer Total Score, Change from Baseline to Week 12, Median ([2]; 125 mg once daily): −2.0
SCoRS Interviewer Total Score, Week 12, Mean (SD) ([2]; 125 mg once daily): 36.1 (9.69)
SCoRS Interviewer Total Score, Week 12, Median ([2]; 125 mg once daily): 36.5
SCoRS Interviewer Total Score, Difference from Placebo for Week 12, LS Mean (SE) ([2]; 500 mg once daily, one-sided unadjusted p 0.449): −0.1 (0.98)
SCoRS Interviewer Total Score, Adjusted Change from Baseline to Week 12, LS Mean (SE) ([2]; 500 mg once daily): −1.5 (0.84)
SCoRS Interviewer Total Score, Change from Baseline to Week 12, Mean (SD) ([2]; 500 mg once daily): −2.4 (5.34)
SCoRS Interviewer Total Score, Change from Baseline to Week 12, Median ([2]; 500 mg once daily): −2.0
SCoRS Interviewer Total Score, Week 12, Mean (SD) ([2]; 500 mg once daily): 39.4 (9.60)
SCoRS Interviewer Total Score, Week 12, Median ([2]; 500 mg once daily): 39.0
